From patent publication US7589065B2, “Catalysis of the cis/trans-isomerisation of secondary amide peptide compounds” (Max-Planck Gesellschaft zur Forderung der Wissenschaften, …, priority 2001, dated 2009)

What was measured:
[1] = Stopped-flow spectroscopic test of catalysis of the cis/trans isomerisation of Ala-Leu (APIase activity); type: biochemical
Excerpt: The peptide bond of the substrate Ala-Leu is to about 99% in the trans conformation at pH 7.4. […] The isomerisation rate can be measured when the substrate is subjected to a pH modification that has an influence on the cis/trans equilibrium of the substrate and when the rate of the pH modification is higher than the isomerisation rate of the substrate. In this context, the isomerisation rate corresponds to the sum of the individual rates cis to trans and trans to cis of the two conformation isomers of the substrate. In the present example, a so-called Stopped-Flow device from the company Applied Photophysics Ltd. (England) is used. This spectroscopic device makes a rapid mixture of two components and, subsequently, a collection of spectroscopic data, which is rapid and time-independent, possible. Moreover, an accompanying software makes it possible for the rate constants (kobs) to be calculated while assuming a concentration/time law that corresponds to a so-called “first-order time law”. For the detection of the catalysis, the following assay was selected: • Stock solution Ala-Leu (Bachem, Switzerland) 10 mM dissolved in Aqua dest. with pH 2.0, adjusted by means of HCl • Buffer solution: 12.5 mM Tris, 50 mM KCl, 11 mM MgCl2 with HCl adjusted to pH 8.8 DnaK (SIGMA-ALDRICH CHEMIE GmbH, Germany), or produced in a molecular biological way
After mixing the components in the Stopped-Flow device, the reaction solution had the following concentrations: 1.66 mM Ala-Leu, 10.4 mM Tris, 41.6 mM KCl, 9.2 mM MgCl2. The pH was 7.6. All the solutions were kept constant at a temperature of 25° C.
The thickness of the coating of the silica cuvets was 2 mm, the measuring wave length was 220 nm.
The following solutions were used: • Buffer solution: 12.5 mM Tris, 50 mM KCl, 11 mM MgCl2. • Substrate solution: 20 mM Ala-Leu, dissolved in Aqua dest. at pH 2.0. • DnaK stock solution: 20 μM in buffer solution a
The pH of the solution in the cuvet was 7.3 each. The error lines indicated result from three independent measurements for the determination of the rate constant kobs with a DnaK concentration.
In order to establish whether Cyp18 catalyses the cis/trans isomerisation of the dipeptide Ala-Leu, the isomerisation rate was analysed in the presence of up to 8.4 μM Cyp18: • Human Cyp18 was either bought (SIGMA-ALDRICH CHEMIE GmbH, Germany) or produced as recombinant enzyme (E. coli cultures). The cyclophilin concentration of the cyclophilin stock solution of 1.14 mM was determined by means of titration against the cyclophilin inhibitor cyclosporin A (SIGMA-ALDRICH CHEMIE GmbH, Germany). The substrate Ala-Leu (BACHEM, Switzerland) used was produced as 10 mM stock solution in water with a pH of 2.0. The buffer solution used contained a mixture of the following chemicals: 12 mM Tris, 50 mM KCl, 11 mM MgCI2 and was adjusted with HCl to a pH of 8.8. The measurement of the isomerisation rate of the substrate took place with the Stopped-Flow-Photometer (Applied Photophysics Ltd., England) at 25°C. with 228 nm using 1 cm quartz cuvets. By adding the substrate to the mixture of buffer and Cyp18, solutions were produced in the cuvet with Cyp18 concentrations of 0, 208, 416, 625, 833 and 8,330 nM and 1.66 mM Ala-Leu each with a pH of 7.9.

RNAse T1 P39A = assay: Foldback of RNAse T1 P39A catalysed by APIase; type: biochemical; details: 1 μM DnaK, 15° C., pH 8; without APIase 6.67×10^−4
Protocol: (§1) RNAse T1 contains a Ser-Pro sequence with a cis conformation at the sequence site 38/39. […] In detail, the protein is unfolded by suitable additives and the renaturation rate is measured and registered after removal of the additives, e.g. by rapid dilution. As is shown (Scholz et al., Biol. chem. 1998, March; 379(3): 361-5), the exchange of the prolin 39 with an alanine (P39A) leads to a protein mutant whose foldback rate is […] influenced by this peptide bond. Added APIase, dependent on concentration, catalyses the isomerisation of this non-prolyl peptide bond and, thus, the foldback of the P39A mutant.
(§2) […] RNAse T1 P39A was incubated with 5 M guanidinium-Cl and 0.1 M Tris-HCl at pH 8 at 15° C. for 60 min. The foldback at 15° C. was started by a 40-fold dilution of the unfolded protein in foldback buffer (0.1 Tris-HCl, 50 mM KCl, 11 mM MgCl2) at pH 8. The foldback was determined as increase of the protein fluorescence at 320 nm (10 nm width of band) with excitation of 278 nm (1.5 nm width of band) with a Jobin-Yvon-Spex Fluoromax-2 fluorescence spectrometer.

[2] = 2D 1H NMR exchange (NOESY) measurement of cis/trans isomerisation in the pentapeptide; type: biochemical; details: for relative intensity of the cross signal of the peptide bond Ala-Tyr / relative intensity of the cross signal of the peptide bond Tyr-Ala: 25 mM pentapeptide, pH 7.1, 278° K; for relative intensity of the cross signal of the peptide bond Ala-Tyr: no addition 3.50 ± 0.51; for relative intensity of the cross signal of the peptide bond Tyr-Ala: no addition 3.89 ± 0.32
Excerpt: A further possibility, only described in 1998, is the determination of the cis/trans isomerisation rate of secondary amide peptide bonds containing aromatic amino acids by means of 2D 1H NMR exchange experiments (Scherer G. et al., 1998, JACS 120:5568-5574). In Example 8, this NMR method is used to determine a catalytic acceleration of the cis/trans isomerisation of the peptide bonds Ala-Tyr and Tyr-Ala within the pentapeptide Ala-Ala-Tyr-Ala-Ala. The acceleration is accomplished by catalytic amounts of DnaK.
NMR Device: Bruker DRX-500, Equipped with z-gradient
• FIG. 8: The alanine methyl region from the two-dimensional exchange 1H-NMR spectrum of 25 mM Ala-Ala-Tyr-Ala-Ala in 25 mM Tris, 11 mM MgCl2, 50 mM KCl, 9:1H2O:D2O, pH 7.1 at 278° K. The mixing time of the phase-sensitive NOESY was 330 ms. Each FID had 184 scans. The amount of data from t1×t2=512×8192 points covered a spectral range of 5501 Hz×5482 Hz. The correction of the base line was carried out by adjustment with a polynom of fifth order in the F2 dimension. […] The experiment was carried out under identical conditions as described above. In addition, 20 μM DnaK was contained in the measuring solution.
In a further analysis of the method of the two-dimensional NOESY experiment illustrated in Example 8, the cross signals can be quantified by means of common mathematical techniques.

[3] = DnaK 250 and 1,000 nM, 10° C., pH 7.8
Protocol: The details of Example 5 are described as follows: • Measuring device: Spectrophotometer Diodenarray HP8452A (Hewlett Packard, USA) • Substrate: Suc-Ala-Phe-Pro-Phe-NHNp (SEQ ID NO:2) (BACHEM, Switzerland) • Protease: Chymotrypsin (Merck, Germany) • Measure temperature: 10° C. • Buffer: 35 mM Hepes, pH 7.8 • Protease solution for use: 5 mg protease per ml buffer • Substrate solution for use: 35 mg substrate dissolved in 1 ml DMSO • DnaK solution for use: 30 μM in buffer • Cuvet: 1 ml quartz cuvet, thickness of layer 1 cm • Measuring wave length: 390 nm
Process: After attemperating a mixture of substrate, DnaK and buffer, the reaction is started by rapid addition and homogenous distribution of the protease solution for use. In this way, a chymotrypsin concentration of 0.83 mg/ml is achieved in the cuvet. By means of the substrate amount contained in the cuvet, a final extinction of about 0.43 is accomplished after complete turnover of the substrate. The concentrations of DnaK contained in the cuvet were 0.250 and 1,000 nM.

DnaK = DnaK (Escherichia coli, UniProt P0A6Y8); assay: biochemical
DnaK, sequence (P0A6Y8 whole entry): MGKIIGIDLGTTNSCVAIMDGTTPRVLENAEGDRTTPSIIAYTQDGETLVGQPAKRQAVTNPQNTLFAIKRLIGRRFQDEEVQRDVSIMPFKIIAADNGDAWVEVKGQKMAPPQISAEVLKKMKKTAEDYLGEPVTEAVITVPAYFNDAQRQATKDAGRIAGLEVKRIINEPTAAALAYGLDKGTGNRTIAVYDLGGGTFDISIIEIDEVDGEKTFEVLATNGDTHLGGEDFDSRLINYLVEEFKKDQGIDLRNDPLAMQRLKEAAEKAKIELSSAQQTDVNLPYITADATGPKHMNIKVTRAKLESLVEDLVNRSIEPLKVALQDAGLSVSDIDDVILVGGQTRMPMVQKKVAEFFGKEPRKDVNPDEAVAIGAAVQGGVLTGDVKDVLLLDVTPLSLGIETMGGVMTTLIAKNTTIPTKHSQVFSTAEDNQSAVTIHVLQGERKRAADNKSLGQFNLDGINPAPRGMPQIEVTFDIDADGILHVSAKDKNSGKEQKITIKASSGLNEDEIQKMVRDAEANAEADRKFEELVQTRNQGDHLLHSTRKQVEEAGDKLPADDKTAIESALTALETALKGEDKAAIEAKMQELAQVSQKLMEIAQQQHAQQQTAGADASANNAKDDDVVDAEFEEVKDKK
Protocol: as §1, §2

APIase activity of DnaK = biological target: T1, APIase activity of DnaK (Escherichia coli, UniProt P0A6Y8); assay: Inhibition of the APIase activity of DnaK in the spectrophotometric Ala-Leu activity test; type: biochemical
T1 construct: purchased SIGMA-ALDRICH CHEMIE GmbH, Germany
T1 sequence (P0A6Y8 whole entry): as above
Protocol: The peptide bond of the substrate Ala-Leu is to about 99% in the trans conformation at pH 7.4. An increase of the proton concentration of the aqueous Ala-Leu solution to about 100 mM results in a shift of the equilibrium of the conformations to a higher content of the peptide with the cis conformation. […] The isomerisation rate can be measured when the substrate is subjected to a pH modification that has an influence on the cis/trans equilibrium of the substrate and when the rate of the pH modification is higher than the isomerisation rate of the substrate. In this context, the isomerisation rate corresponds to the sum of the individual rates cis to trans and trans to cis of the two conformation isomers of the substrate. In the present example, a so-called Stopped-Flow device from the company Applied Photophysics Ltd. (England) is used. This spectroscopic device makes a rapid mixture of two components and, subsequently, a collection of spectroscopic data, which is rapid and […], possible. Moreover, an accompanying software makes it possible for the rate constants (kobs) to be calculated while assuming a concentration/time law that corresponds to a so-called “first-order time law”. […]

Compound: DnaK: protein with APIase activity, bought from SIGMA-ALDRICH or produced in a molecular biological way
- rate constant (kobs) of the cis/trans isomerisation of Ala-Leu ([1]; 624 nM DnaK, 1.66 mM Ala-Leu, pH 7.6, 25° C., non-catalysed reaction 0.36 s^−1): 0.55 s⁻¹
- time until the conformation equilibrium occurs ([1]; 624 nM DnaK, without DnaK about 20 seconds): less than 10 seconds
- rate constant of the foldback of RNAse T1 P39A (RNAse T1 P39A): 9.77×10^−4 -s
- change of the relative intensity of the Ala-Tyr cross signal (in words) ([2]; 20 μM DnaK): nearly doubles
- influence on the cis/trans isomerisation rate of the Tyr-Ala peptide bond (in words) ([2]; 20 μM DnaK): no influence
- relative intensity of the cross signal of the peptide bond Ala-Tyr ([2]; 20 μM addition): 6.37 ± 0.57
- relative intensity of the cross signal of the peptide bond Tyr-Ala ([2]; 20 μM addition): 3.39 ± 0.45
- influence on the peptidyl-prolyl cis/trans isomerisation rate of the substrate (in words) [3]: did not show a visible influence on the cis/trans isomerisation rate of the substrate

Compound: CCCCCCCCCCCC(=O)NC(Cc1c[nH]c2ccccc12)C(=O)O (stereo not shown) [28/C8]
- IC50 (DnaK): 55.3 µM

Compound: bovine serum albumin: purified reference protein (SIGMA-ALDRICH)
- catalysis of the cis/trans isomerisation of the dipeptide Ala-Leu (in words) ([1]; 1 μM purified protein instead of Cyp18): not able to catalyse the cis/trans isomerisation of the dipeptide

Compound: CSCC[C@H](NC(=O)[C@H](CC(C)C)NC(=O)CNC(=O)[C@H](Cc1ccccc1)NC(=O)[C@H](Cc1ccccc1)NC(=O)[C@H](CCC(N)=O)NC(=O)[C@H](CCC(N)=O)NC(=O)[C@@H]1CCCN1C(=O)[C@H](CCCCN)NC(=O)[C@@H]1CCCN1C(=O)[C@@H](N)CCCN=C(N)N)C(N)=O [substance P]
- IC50 (APIase activity of DnaK): 76 ± 16 µM

Compound: FKBP12: peptidyl-prolyl cis/trans isomerase from SIGMA-ALDRICH
- catalysis of the cis/trans isomerisation of the Ala-Tyr and Tyr-Ala peptide bonds (in words) ([2]; 20 μM addition): neither catalyse
- relative intensity of the cross signal of the peptide bond Ala-Tyr ([2]; 20 μM addition): 3.94 ± 0.87
- relative intensity of the cross signal of the peptide bond Tyr-Ala ([2]; 20 μM addition): 2.68 ± 0.75

Compound: Cyp18: human peptidyl-prolyl cis/trans isomerase of the cyclophilin family, EC 5.2.1.8, P05092
- rate constants kobs of the isomerisation of Ala-Leu ([1]; Cyp18 0 to 8,330 nM, independent of concentration, 1.66 mM Ala-Leu, pH 7.9, 25° C., 228 nm): about 0.43±0.03 s^−1
- acceleration of the cis to trans reaction of Ala-Leu (in words) ([1]; up to 8.4 μM Cyp18, observation period 20 seconds): no acceleration of the cis to trans reaction could be observed

Compound: CCCCCCCC/C=C\CCCCCCCC(=O)NC(CC(C)C)C(=O)NCCc1ccccc1 (stereo not shown) [30/B4]
- IC50 (DnaK): 7.5 µM

Compound: CCCCCCCCCCCCCCCC(=O)NCc1ccc(C(=O)NCC2CCC(C(=O)O)CC2)cc1 (stereo not shown) [37/B11]
- IC50 (DnaK): 5.9 µM

Compound: CCCCCCCCCCCC(=O)NC(CC(=O)O)C(=O)O (stereo not shown) [28/B7]
- IC50 (DnaK): 177 µM
